Laboratory results from publication PMC10950897, “VCF1 is a p97/VCP cofactor promoting recognition of ubiquitylated p97-UFD1-NPL4 substrates” (Nature Communications, 2024).

Key:
[1] = tested on: p97 (WT, truncations, Y143A); assay: In vitro binding, StrepTactin pulldown of Strep-HA-VCF1 with purified p97 proteins; design: species or system human
Protocol: All in vitro binding experiments were performed in EBC or RIPA buffer as indicated. Recombinant Biotin-tagged K48-linked poly-ubiquitin chains (2−7) and K48-linked poly-ubiquitin chains (2−16) were purchased from R&D Systems and Enzo Life Science, respectively. Recombinant proteins were incubated with Strep-Tactin Sepharose (IBA), Glutathione agarose (Gold Biotechnology) or […] Fab-trap agarose (ChromoTek) overnight on an end-over-end rotator at 4 °C, washed six times with EBC or RIPA buffer, and resuspended in 2×Laemmli sample buffer. For p97, VCF1 or p47 pulldowns, antibodies (0.5 µg/sample) were coupled to agarose beads, incubated with recombinant proteins or cell lysates and washed with the indicated buffer. To assess p97-UFD1-NPL4 binding to ubiquitylated proteins in total cell extracts, U2OS cells were lysed in EBC buffer supplemented with protease and phosphatase inhibitors, sonicated and incubated on ice for 10 min. Lysates were cleared by centrifugation for 10 min at 16,100 × g. Cell lysate (40 µg) was added to recombinant proteins in EBC buffer, incubated overnight on the rotator with […] Fab-trap agarose (ChromoTek), and beads were washed six times.

p97 (His6-p97 Y143A) = assay: SPR: binding to immobilized His6-p97 Y143A mutant; design: species or system human; conditions: full-length VCF1 up to 100 nM
Protocol: Surface Plasmon Resonance (SPR)
All SPR experiments were performed at 25 °C on a Biacore T200 instrument equipped with CM5 or CM7 sensor chips (Cytiva, Uppsala, Sweden). SPR running buffers and amine-coupling reagents (N-ethyl-N’-(3-dimethlyaminoproply)carbodiimide (EDC), N-hydroxysuccinimide (NHS), and ethanolamine HCl) were purchased from Cytiva. 1x PBS-P (11.9 mM NaH2PO4-Na2HPO4, pH 7.4; 137 mM NaCl; 2.7 mM KCl; 0.005% surfactant P20) supplemented with 0.5 mM TCEP was used as running buffer for the immobilization and the binding experiments with Strep-HA-VCF1 full-length proteins. For the VCF1 C-terminal peptide binding studies, 2% DMSO was additionally included in the running buffer. Eight solvent correction samples ranging from 1.5% DMSO to 2.8% DMSO prepared in either PBS-P, 0.5 mM TCEP or Tris-based buffer were used to correct buffer/DMSO mismatches. […] The dissociation rate of the p97-VCF1 complexes was monitored for 400 s. […] Binding experiments were measured in triplicates. […] The equilibrium dissociation contants, Kd, were determined by plotting the equilibrium responses levels (Req) against […] and fitting to a steady-state model.

## VCF1: human FAM104A isoform 1, 186 amino acids (UniProt Q969W3); recombinant Strep-HA-tagged
[1]; full-length and truncated His6-p97 proteins
  p97 domain bound: interacts with the p97 N-domain
[1]; purified His6-p97 WT, RIPA buffer
  in vitro interaction with p97: readily interacted in vitro
p97 (His6-p97 Y143A)
  binding to p97 Y143A (in words): did not show detectable binding affinity
p97 (His6-p97 Y143A); listed as Strep-HA-VCF1 WT
  binding to p97 Y143A (in words): no dose-dependent response was observed
